Assay results as given in patent US7956074B2, “Aryl-isoxazolo-4-yl-oxadiazole derivatives” (Hoffman-La Roche Inc., priority 2005, dated 2011).

Each compound was assayed against T1, GABA A receptor α5β3γ2 (Homo sapiens, UniProt P18507+P31644) (assay: [3H]flumazenil competition binding, human GABA A α5β3γ2). Conditions: competition for [3H]flumazenil (0.5 nM) binding, HEK293 cells expressing human (transiently transfected) α5β3γ2; means of two determinations; read-out: Ki[nM] hα5.
T1 construct: expressed in transfected cells; host or cells: HEK293 cells, transiently transfected; membranes prepared
How it was run: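 HEK293 membranes expressing GABA-A receptors (human transiently, rat stably transfected) were used for [3H]flumazenil competition in Krebs-tris buffer, pH 7.5. Incubation ran 1 h at 4 °C to equilibrium, followed by filtration and scintillation counting. Ki values are means of two determinations.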

Compound	Ki
COc1cc(NCCS(C)(=O)=O)c(F)cc1-c1nnc(-c2c(-c3ccccc3)noc2C)o1 [Example 127, {2-Fluoro-5-methoxy-4-[5-(5-methyl-3-phenyl-isoxazol-4-yl)-[1,3,4]oxadiazol-2-yl]-phenyl}-(2-methanesulfonyl-ethyl)-amine]	1.7 nM
COc1cc(NCCN2CCCC2=O)c(F)cc1-c1nnc(-c2c(-c3ccccc3)noc2C)o1 [Example 128, 1-(2-{2-Fluoro-5-methoxy-4-[5-(5-methyl-3-phenyl-isoxazol-4-yl)-[1,3,4]oxadiazol-2-yl]-phenylamino}-ethyl)-pyrrolidin-2-one]	4.2 nM
COc1cc(NCCO)c(F)cc1-c1nnc(-c2c(-c3ccccc3)noc2C)o1 [Example 129, 2-{2-Fluoro-5-methoxy-4-[5-(5-methyl-3-phenyl-isoxazol-4-yl)-[1,3,4]oxadiazol-2-yl]-phenylamino}-ethanol]	2.5 nM
COc1cc(NCc2ccccn2)c(F)cc1-c1nnc(-c2c(-c3ccccc3)noc2C)o1 [Example 131, {2-Fluoro-5-methoxy-4-[5-(5-methyl-3-phenyl-isoxazol-4-yl)-[1,3,4]oxadiazol-2-yl]-phenyl}-pyridin-2-ylmethyl-amine]	21.2 nM
COc1cc(NCCN2CCCC2)c(F)cc1-c1nnc(-c2c(-c3ccccc3)noc2C)o1 [Example 132, {2-Fluoro-5-methoxy-4-[5-(5-methyl-3-phenyl-isoxazol-4-yl)-[1,3,4]oxadiazol-2-yl]-phenyl}-(2-pyrrolidin-1-yl-ethyl)-amine]	8.6 nM
COc1cc(NCCN2CCNC2=O)c(F)cc1-c1nnc(-c2c(-c3ccccc3)noc2C)o1 [Example 133, 1-(2-{2-Fluoro-5-methoxy-4-[5-(5-methyl-3-phenyl-isoxazol-4-yl)-[1,3,4]oxadiazol-2-yl]-phenylamino}-ethyl)-imidazolidin-2-one]	12.8 nM
COc1cc(NC=O)ccc1-c1nnc(-c2c(-c3ccccc3)noc2C)o1 [Example 134, N-{3-Methoxy-4-[5-(5-methyl-3-phenyl-isoxazol-4-yl)-[1,3,4]oxadiazol-2-yl]-phenyl}-formamide]	5.8 nM
COc1cc(NCCN(C)C)c(F)cc1-c1nnc(-c2c(-c3ccccc3)noc2C)o1 [Example 135, N′-{2-Fluoro-5-methoxy-4-[5-(5-methyl-3-phenyl-isoxazol-4-yl)-[1,3,4]oxadiazol-2-yl]-phenyl}-N,N-dimethyl-ethane-1,2-diamine]	9.4 nM
Cc1onc(-c2ccccc2)c1-c1nnc(-c2ccc(N3CCOCC3)nc2)o1 [Example 136, 4-{5-[5-(5-Methyl-3-phenyl-isoxazol-4-yl)-[1,3,4]oxadiazol-2-yl]-pyridin-2-yl}-morpholine]	15.3 nM
Cc1onc(-c2ccccc2)c1-c1nnc(-c2ccc(NCCO)nc2)o1 [Example 137, 2-{5-[5-(5-Methyl-3-phenyl-isoxazol-4-yl)-[1,3,4]oxadiazol-2-yl]-pyridin-2-ylamino}-ethanol]	24.5 nM
Cc1onc(-c2ccccc2)c1-c1nnc(-c2ccc(N3CCSCC3)nc2)o1 [Example 138, 4-{5-[5-(5-Methyl-3-phenyl-isoxazol-4-yl)-[1,3,4]oxadiazol-2-yl]-pyridin-2-yl}-thiomorpholine]	31 nM
Cc1onc(-c2ccccc2)c1-c1nnc(-c2ccc(NC3CCOCC3)nc2)o1 [Example 139, {5-[5-(5-Methyl-3-phenyl-isoxazol-4-yl)-[1,3,4]oxadiazol-2-yl]-pyridin-2-yl}-(tetrahydro-pyran-4-yl)-amine]	16.4 nM
Cc1onc(-c2ccccc2)c1-c1nnc(-c2ccc(N3CCC(O)CC3)nc2)o1 [Example 140, 5′-[5-(5-Methyl-3-phenyl-isoxazol-4-yl)-[1,3,4]oxadiazol-2-yl]-3,4,5,6-tetrahydro-2H-[1,2′]bipyridinyl-4-ol]	23.5 nM
Cc1onc(-c2ccccc2)c1-c1nnc(-c2ccc(N3CCS(=O)(=O)CC3)nc2)o1 [Example 141, 4-{5-[5-(5-Methyl-3-phenyl-isoxazol-4-yl)-[1,3,4]oxadiazol-2-yl]-pyridin-2-yl}-thiomorpholine 1,1-dioxide]	17.7 nM
Cc1onc(-c2ccccc2)c1-c1nnc(-c2ccc(N3CCOCC3)cn2)o1 [Example 142, 4-{6-[5-(5-Methyl-3-phenyl-isoxazol-4-yl)-[1,3,4]oxadiazol-2-yl]-pyridin-3-yl}-morpholine]	17.2 nM
N-Cyclopropylmethyl-4-[5-(5-methyl-3-phenyl-isoxazol-4-yl)-[1,3,4]oxadiazol-2-yl]-benzamide [Example 79]	235 nM
